In patent US20180194762A1 (Pharmacyclics LLC, priority 2017, published 2018):
Read-outs that look alike come from different tables or passages of the source.

Legend:
Type in all cases: biochemical
Btk = biological target: T1, Btk (Homo sapiens, UniProt Q06187); assay: Btk in vitro inhibitory activity (one of Method A TR-FRET, Method B electrophoretic mobility shift, Method C radiometric filter binding)
T1 construct: purified from insect cells as a full-length construct containing a N-terminal 6X-His tag; His6 (N); made in house; host or cells: insect cells (Method C)
T1 sequence (Q06187 whole entry): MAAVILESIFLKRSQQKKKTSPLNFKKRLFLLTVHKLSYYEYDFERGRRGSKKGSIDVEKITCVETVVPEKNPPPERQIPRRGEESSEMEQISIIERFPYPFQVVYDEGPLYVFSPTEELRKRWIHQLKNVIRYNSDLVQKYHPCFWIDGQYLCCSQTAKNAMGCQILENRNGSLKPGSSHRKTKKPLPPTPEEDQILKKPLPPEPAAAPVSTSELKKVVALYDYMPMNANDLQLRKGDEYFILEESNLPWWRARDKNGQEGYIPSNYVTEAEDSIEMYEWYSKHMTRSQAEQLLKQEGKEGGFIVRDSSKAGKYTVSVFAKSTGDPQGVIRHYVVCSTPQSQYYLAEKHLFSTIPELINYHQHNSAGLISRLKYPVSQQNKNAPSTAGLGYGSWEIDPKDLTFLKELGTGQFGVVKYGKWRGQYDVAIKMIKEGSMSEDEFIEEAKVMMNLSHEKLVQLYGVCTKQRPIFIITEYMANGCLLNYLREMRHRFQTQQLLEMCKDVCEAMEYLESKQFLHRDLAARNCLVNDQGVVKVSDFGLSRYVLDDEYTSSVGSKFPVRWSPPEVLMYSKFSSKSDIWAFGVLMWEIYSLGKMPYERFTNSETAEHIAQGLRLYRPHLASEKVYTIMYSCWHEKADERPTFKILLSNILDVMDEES
In short: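 Method A: TR-FRET with 0.5 nM Btk at [ATP]=Km, EDTA-quenched, 665/615 nm ratio; Ki(app) converted to IC50. Method B: 1 nM full-length His6 human BTK, 1 μM FAM peptide, pH 7.5, mobility-shift product/sum ratio, 12-point 4-parameter fit. Method C: radiometric filter binding, 8 nM His-tagged BTK, 0.2 mg/mL poly-Glu-Tyr.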

TEC = biological target: T2, TEC (Homo sapiens, UniProt P42680); assay: Inhibition of a panel of kinases (in vitro HotSpot kinase assay, 33P-ATP, 1 μM ATP); conditions: for IC50: HotSpot kinase assay, 1 μM ATP; for TEC/Btk: ratio of TEC IC50 to Btk IC50 (selectivity)
T2 sequence (P42680 1-631): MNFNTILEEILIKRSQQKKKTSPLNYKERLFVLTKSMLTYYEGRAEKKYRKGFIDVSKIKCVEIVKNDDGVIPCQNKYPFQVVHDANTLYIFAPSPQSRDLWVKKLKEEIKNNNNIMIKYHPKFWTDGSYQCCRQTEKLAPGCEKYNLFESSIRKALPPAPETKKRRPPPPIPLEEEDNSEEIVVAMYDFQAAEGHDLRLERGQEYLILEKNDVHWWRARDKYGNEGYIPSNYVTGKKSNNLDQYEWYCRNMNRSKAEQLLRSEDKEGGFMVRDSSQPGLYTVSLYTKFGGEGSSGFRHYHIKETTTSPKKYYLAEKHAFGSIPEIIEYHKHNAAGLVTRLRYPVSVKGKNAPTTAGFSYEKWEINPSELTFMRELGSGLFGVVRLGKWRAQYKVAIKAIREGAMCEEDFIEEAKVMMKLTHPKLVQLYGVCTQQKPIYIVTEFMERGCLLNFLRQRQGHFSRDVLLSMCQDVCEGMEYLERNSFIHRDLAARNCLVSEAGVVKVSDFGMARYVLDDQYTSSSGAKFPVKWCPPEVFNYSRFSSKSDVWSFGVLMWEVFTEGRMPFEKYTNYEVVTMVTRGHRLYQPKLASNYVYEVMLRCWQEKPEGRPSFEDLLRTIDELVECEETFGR
In short: (§1)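 Purified kinase enzymes were incubated with an appropriate substrate and 33P-labelled ATP at 1 μM ATP. Inhibition was measured radiometrically from incorporation of the 33P label.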

panel of kinases = biological target: T3, panel of kinases (Homo sapiens, UniProt P51813); assay: Inhibition of a panel of kinases (in vitro HotSpot kinase assay, 33P-ATP, 1 μM ATP), other kinases; conditions: BMX wild-type, read-out: BMX-WT IC50
T3 sequence (P51813 1-675): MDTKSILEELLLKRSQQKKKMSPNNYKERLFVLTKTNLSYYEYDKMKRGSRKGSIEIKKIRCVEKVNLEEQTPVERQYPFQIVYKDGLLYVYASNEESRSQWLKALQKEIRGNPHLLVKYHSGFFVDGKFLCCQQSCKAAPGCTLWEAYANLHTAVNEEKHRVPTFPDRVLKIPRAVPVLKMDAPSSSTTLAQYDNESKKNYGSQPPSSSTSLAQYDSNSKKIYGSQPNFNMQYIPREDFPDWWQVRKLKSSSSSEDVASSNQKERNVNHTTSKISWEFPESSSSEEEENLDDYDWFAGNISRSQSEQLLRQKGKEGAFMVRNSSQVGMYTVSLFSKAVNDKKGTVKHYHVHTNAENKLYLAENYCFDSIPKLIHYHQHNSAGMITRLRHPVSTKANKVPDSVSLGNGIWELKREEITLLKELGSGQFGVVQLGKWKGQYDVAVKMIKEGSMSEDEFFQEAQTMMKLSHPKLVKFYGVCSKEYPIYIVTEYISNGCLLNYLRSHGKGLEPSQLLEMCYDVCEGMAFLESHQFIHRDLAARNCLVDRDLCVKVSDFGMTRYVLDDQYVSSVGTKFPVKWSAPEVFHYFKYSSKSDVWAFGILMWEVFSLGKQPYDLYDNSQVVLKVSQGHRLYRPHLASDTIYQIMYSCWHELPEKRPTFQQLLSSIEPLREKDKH
In short: as §1

[1] = wild-type Btk, read-out: Btk-WT IC50
[2] = method is one of A, B or C, not stated which, read-out: IC50 values against Btk

Compound | IC50 (Btk; [1]) | IC50 (TEC) | TEC/Btk (TEC) | IC50 (panel of kinases) | IC50 (Btk; [2])
C[C@H]1CC[C@@H](Nc2n[nH]c3nccc(-c4ccc(CNC(=O)c5cc(C(C)(C)O)on5)c(F)c4)c23)CN1C(=O)N(C)C [Example 418, (2S,5R)-5-({4-[3-fluoro-4-({[5-(2-hydroxypropan-2-yl)-1,2-oxazole-3-carbonyl]amino}methyl)phenyl]-1H-pyrazolo[3,4-b]pyridin-3-yl}amino)-N,N,2-trimethylpiperidine-1-carboxamide] | 50.6 nM | 3080 nM |  | 3820 nM | 
CC(C)(C)c1noc(C(=O)NCc2ccc(-c3ccnc4[nH]nc(N5CCC(NC(=O)c6ccccc6)CC5)c34)cc2F)n1 [Example 208, N-({4-[3-(4-benzamidopiperidin-1-yl)-1H-pyrazolo[3,4-b]pyridin-4-yl]-2-fluorophenyl}methyl)-3-tert-butyl-1,2,4-oxadiazole-5-carboxamide] | 0.658 nM | 1710 nM | 2599 | 2090 nM | 
C=CC(=O)N1CC=C(c2n[nH]c3nccc(-c4ccc(CNC(=O)c5noc(C(C)(C)C)n5)c(F)c4)c23)C1 [Example 281, 5-tert-butyl-N-[(2-fluoro-4-{3-[1-(prop-2-enoyl)-2,5-dihydro-1H-pyrrol-3-yl]-1H-pyrazolo[3,4-b]pyridin-4-yl}phenyl)methyl]-1,2,4-oxadiazole-3-carboxamide] | 0.0568 nM | 4.92 nM | 87 | 2.98 nM | 
CC#CC(=O)N1CC[C@@H](Nc2n[nH]c3nccc(-c4ccc(CNC(=O)c5ccc(OC)cc5)c(F)c4)c23)C1 [Example 112, N-{[4-(3-{[(3R)-1-(but-2-ynoyl)pyrrolidin-3-yl]amino}-1H-pyrazolo[3,4-b]pyridin-4-yl)-2-fluorophenyl]methyl}-4-methoxybenzamide] | 4.07 nM | 100 nM | 24 | 48 nM | < 10 nM
CC(=O)N[C@@H]1CCN(c2n[nH]c3nccc(-c4ccc(CNC(=O)c5nc(C(C)(C)C)no5)c(F)c4)c23)C1 [Example 373, N-[(4-{3-[(3R)-3-acetamidopyrrolidin-1-yl]-1H-pyrazolo[3,4-b]pyridin-4-yl}-2-fluorophenyl)methyl]-3-tert-butyl-1,2,4-oxadiazole-5-carboxamide] | 0.0597 nM | 30.5 nM |  | 36 nM | 
C=CC(=O)N[C@H]1CC[C@@H](Nc2n[nH]c3nccc(-c4ccc(CNC(=O)c5noc(C(C)(C)C)n5)c(F)c4)c23)C1 [Example 320, 5-tert-butyl-N-({2-fluoro-4-[3-({(1R,3S)-3-[(prop-2-enoyl)amino]cyclopentyl}amino)-1H-pyrazolo[3,4-b]pyridin-4-yl]phenyl}methyl)-1,2,4-oxadiazole-3-carboxamide] | 0.0637 nM | 58.5 nM |  | 86.7 nM | 
C=CC(=O)N1CC[C@@H](Nc2n[nH]c3nccc(-c4ccc(CN5CCn6c(cc7c6CC(C)(C)C7)C5=O)c(F)c4)c23)C1 [Example 53] | 0.623 nM | 152 nM | 244 | 310 nM | < 10 nM
C=CC(=O)N1CC[C@@H](Nc2n[nH]c3nccc(-c4ccc(CN5CCc6cc(C(C)(C)C)ccc6C5=O)c(F)c4)c23)C1 [Compound 43, 6-tert-butyl-2-{[2-fluoro-4-(3-{[(3R)-1-(prop-2-enoyl)pyrrolidin-3-yl]amino}-1H-pyrazolo[3,4-b]pyridin-4-yl)phenyl]methyl}-1,2,3,4-tetrahydroisoquinolin-1-one] | 2.76 nM | 599 nM | 217 | 394 nM | 

Continued, values first:

IC50 (Btk; [1]) | IC50 (TEC) | TEC/Btk (TEC) | IC50 (panel of kinases) | IC50 (Btk; [2]) | Compound
861 nM | 3340 nM | 4 | 2140 nM |  | CC(C)(C)c1cccc(C(=O)NCc2ccc(-c3ccnc4[nH]nc(N[C@@H]5CCNC5)c34)cc2F)c1 [Example 62, 3-tert-butyl-N-{[2-fluoro-4-(3-{[(3R)-pyrrolidin-3-yl]amino}-1H-pyrazolo[3,4-b]pyridin-4-yl)phenyl]methyl}benzamide]
> 10000 nM | > 10000 nM | >100 | > 10000 nM |  | C[C@H](NC(=O)c1noc(C(C)(C)C)n1)c1ccc(-c2ccnc3[nH]nc(N[C@@H]4CCNC4)c23)cc1 [Example 72, 5-tert-butyl-N-[(1S)-1-[4-(3-{[(3R)-pyrrolidin-3-yl]amino}-1H-pyrazolo[3,4-b]pyridin-4-yl)phenyl]ethyl]-1,2,4-oxadiazole-3-carboxamide]
200 nM | 2780 nM | 014 | 875 nM |  | C=CC(=O)N1CC[C@@H](Nc2n[nH]c3nccc(-c4cccc(NC(=O)c5noc(C(C)(C)C)n5)c4)c23)C1 [Example 265, 5-tert-butyl-N-[3-(3-{[(3R)-1-(prop-2-enoyl)pyrrolidin-3-yl]amino}-1H-pyrazolo[3,4-b]pyridin-4-yl)phenyl]-1,2,4-oxadiazole-3-carboxamide]
144 nM | > 10000 nM |  | > 10000 nM |  | CC(C)(C)c1ccc(C(=O)NCc2ccc(-c3ccnc4[nH]nc(N[C@@H]5CCNC5)c34)cc2F)cc1 [Compound 8, 4-tert-butyl-N-{[2-fluoro-4-(3-{[(3R)-pyrrolidin-3-yl]amino}-1H-pyrazolo[3,4-b]pyridin-4-yl)phenyl]methyl}benzamide]
21.7 nM | 8270 nM |  | 8120 nM |  | CC(C)(C)c1nc(C(=O)NCc2ccc(-c3ccnc4[nH]nc(N[C@H]5CC[C@H](N)CC5)c34)cc2F)no1 [Example 151, 5-tert-butyl-N-{[2-fluoro-4-(3-{[(1r,4r)-4-aminocyclohexyl]amino}-1H-pyrazolo[3,4-b]pyridin-4-yl)phenyl]methyl}-1,2,4-oxadiazole-3-carboxamide]
7.08 nM | 2230 nM | 315 | 2930 nM | < 10 nM | C[C@H]1CC[C@@H](Nc2n[nH]c3nccc(-c4ccc(CNC(=O)c5noc(C(C)(C)C)n5)c(F)c4)c23)CN1CC#N [Example 143, 5-tert-butyl-N-{[4-(3-{[(3R,6S)-1-(cyanomethyl)-6-methylpiperidin-3-yl]amino}-1H-pyrazolo[3,4-b]pyridin-4-yl)-2-fluorophenyl]methyl}-1,2,4-oxadiazole-3-carboxamide]
30.1 nM | 8400 nM |  | 4180 nM |  | CC(C)(C)c1nc(C(=O)NCc2ccc(-c3ccnc4[nH]nc(NC5CCNCC5)c34)cc2F)no1 [Example 109, 5-tert-butyl-N-[(2-fluoro-4-{3-[(piperidin-4-yl)amino]-1H-pyrazolo[3,4-b]pyridin-4-yl}phenyl)methyl]-1,2,4-oxadiazole-3-carboxamide]
1.38 nM | 348 nM | 252 | 224 nM | < 10 nM | C=CC(=O)N1CC[C@@H](Nc2n[nH]c3nccc(-c4ccc(C(C)(C)NC(=O)c5noc(C(C)(C)C)n5)cc4)c23)C1 [Example 134, 5-tert-butyl-N-{2-[4-(3-{[(3R)-1-(prop-2-enoyl)pyrrolidin-3-yl]amino}-1H-pyrazolo[3,4-b]pyridin-4-yl)phenyl]propan-2-yl}-1,2,4-oxadiazole-3-carboxamide]
382 nM | 6060 nM |  | 3360 nM |  | C[C@@H](NC(=O)c1cc(C(C)(C)O)on1)c1ccc(-c2ccnc3[nH]nc(NC4CCCC4)c23)cc1 [Example 397, N-[(1R)-1-{4-[3-(cyclopentylamino)-1H-pyrazolo[3,4-b]pyridin-4-yl]phenyl}ethyl]-5-(2-hydroxypropan-2-yl)-1,2-oxazole-3-carboxamide]
